Results published in patent US20240287063A1, “METHIONINE ADENOSYLTRANSFERASE 2A INHIBITOR” (NANJING CHIA TAI TIANQING PHARMACEUTICAL CO., LTD., priority 2021, published 2024).
pIC50: −log10 of the molar value.

Experiments:
[1] = target: T1, MAT2A enzyme (Homo sapiens, UniProt P31153); test: Enzymatic testing method for MAT2A (Biomol Green, OD620); format: biochemical; conditions: score by IC50 for inhibiting MAT2A; read-out: MAT2A inhibition score
T1 construct: purchased BPS 71401
Description: • a) A 5×MAT2A test buffer (250 mM Tris-HCl, pH 8.0; 250 mM KCl; 75 mM MgCl2; 0.025% BSA; 0.05% Brij35; 1.5 mM EDTA) was first prepared and partially diluted to 1× for later use; • b) Preparation and addition of MAT2A enzyme (BPS, 71401): the MAT2A enzyme was prepared into 3.674 ng/L by using the 1×MAT2A test buffer (1.67×, final concentration 2.20 ng/L), a BioTek (MultiFlo FX) automatic liquid separator was used, 15 μL of 1.67×MAT2A enzyme solution was added to compound test wells and negative control wells respectively, and 15 μL of 1×MAT2A test buffer was added to blank control wells; • c) Preparation and addition of a compound: a compound to be tested was diluted with DMSO from 10 mM stock solution to 100 μM, a positive drug AGI-24512 was diluted under the same conditions, and the diluted compound and positive drug were automatically sprayed into each well by using a Tecan compound titrator (D300e) according to preset concentration gradients, where the spray volume was little and negligible. The concentration gradient was initially 1 μM, the dilution was implemented by ½ log, and a total of 8 gradients were set. Centrifugation at 2500 rpm for 30 s and incubation at 25° C. for 30 min were performed; • d) Preparation of ATP: 10 mM ATP (Sigma, A7699) was diluted with 1×MAT2A test buffer to 700 μM for later use; • e) Preparation and addition of a substrate and ATP mixture: 5×MAT2A test buffer, 3 μL/well; 750 μM L-methionine (Adamas, 01100469), 2.5 μL/well; 700 μM ATP, 2.5 μL/well; and double distilled water, 2 μL/well. A total amount of required mixture was prepared according to the number of test wells, and 10 μL of the mixture was added to each well by using the BioTek (MultiFlo FX) automatic liquid separator, followed by centrifugation at 2500 rpm for 30 s and reaction at 25° C. for 150 min; • f) Addition of Biomol Green detection reagent: 50 μL of Biomol Green (Enzo, BML-AK111) was added to each well by using the BioTek (MultiFlo FX) automatic liquid separator, followed by centrifugation at 2500 rpm for 30 s and incubation at 25° C. for 20 minutes; • g) After the reaction, OD620 values were read by using a Perkin Elmer (Envision 2105) multifunctional plate reader.
A formula for calculating an inhibition rate was as follows: […]
Wherein, • % Inhibition: inhibition rate % • ODsample: OD620 value in a sample well; • ODmin: representing a mean OD620 value of blank control wells without the enzyme or compound to be tested; • ODmax: representing a mean OD620 value of negative control wells with the enzyme and without the compound.
Then a dose-effect curve log(inhibitor) vs. response-Variable slope was fitted by usingGraphPad Prism 5 software to obtain an IC50 value of compound for MAT2A enzyme inhibition.

[2] = test system: HCT116 MTAP−/− subcutaneous xenograft tumors; test: In vivo effect experiment of HCT116 MTAP−/− subcutaneous xenograft tumors in nude mice
Description: Female Nu/Nu nude mice (6-8 weeks old, Beijing Vital River Laboratory Animal Technology Co., Ltd.) were raised in an SPF animal room at a temperature of 20° C.-25° C., relative humidity of 40%-70%, and light and dark lighting for 12 hours each; and animals can freely drink and eat. The animals were adaptively fed before experiment.
HCT116 MTAP^−/− cells (Horizon) were cultured in vitro for proliferation, cells in logarithmic growth phase were collected and resuspended in a serum-free RPMI-1640 medium, and the cell concentration was adjusted to 6.0×10^7 cells/mL; and 100 μL of the cell suspension was injected subcutaneously into the right anterior armpit of each nude mouse by using a 1 mL syringe, the status of the animals was observed regularly, and the growth of transplanted tumors was monitored regularly.
When the tumor volume reached 100-300 mm^3, animals with too large or too small tumor volume or uncertain tumor formation were eliminated, and tumor bearing mice with good health and similar tumor volume were selected and randomly grouped, 6 mice in each group; the administration group received daily intragastric administration (AG-270: 50 mg/kg, with a structure shown below; compound to be tested: 1-7.5 mg/kg); and the control group was intragastrically administrated with the same volume of blank solvent. In the administration period, the tumor diameter was measured twice a week, the tumor volume was calculated, the animals were weighed, and their weight was recorded.
A formula for calculating tumor volume (TV) is: Tv=½×a×b^2, wherein a represents long diameter of the tumor, and b represents short diameter of the tumor.
Experimental data is calculated and statistically processed by using Microsoft Office Excel 2007 software. Unless otherwise specified, the data were expressed as mean±standard error (Mean SEM), and t-test is used for comparison between two groups.
Growth curves of tumor volume in each group are shown in FIG. 1, results of SAM test in tumors of each group are shown in FIG. 2, and the mean tumor volume and SEM in each group are shown in Table 2 below: […]

[3] = test system: HCT116 MTAP −/− cells; test: Cell testing method: HCT116 MTAP-/- cell proliferation inhibition (CellTiter-Glo, 120 h); format: cell-based; conditions: Homo sapiens, HCT-116; score by IC50 for inhibiting HCT116 MTAP−/− cells
Description: HCT116 MTAP −/− cells (purchased from Horizon Discovery): human colorectal cancer cell lines with MTAP gene deletion were cultured in medium RPMI 1640+10% FBS (Fetal bovine serum). On day 0 of the experiment, the live cell density of the foregoing cells in logarithmic growth phase was adjusted to 5000 cells/ml, the cells were inoculated to a 96-well plate by an amount of 100 μl/well, and a blank group was set in parallel; and the inoculated cell plate was put into a 37° C., 5% CO2 incubator for overnight culture.
On day 1 of the experiment, the overnight cultured cell plate was taken out, the supernatant was discarded, 80 μl of serum-free RPMI 1640 medium was added to each well, and place the cells in an incubator for starvation cultivation for 4 h. The compound to be tested was dissolved in DMSO (dimethyl sulfoxide) to prepare a 10 mM compound stock solution. After starvation, the cell plate was taken out, and 80 μl of RPMI 1640+20% FBS medium was added to each well; the cell plate was placed on an automatic liquid dispenser D300e (Tecan), and a dosing program was set as follows: a maximum concentration of the compound to be tested was 30 μM, the compound was diluted with DMSO by a 3 times concentration gradient, there was a total of 10 concentrations, two duplicate wells were set for each concentration, and the DMSO final concentration in each well of the 96-well plate was 0.3%, v/v. The pre-prepared 10 mM stock solution of the compound to be tested was taken out, and the above dosing program was run for dosing. After the dosing was completed, the cell plate was placed in incubator and culture for 120 h.
On day 6 of the experiment, the cell plate was taken out, 50 μl of CellTiter-Go® (purchased from Promega) was added to each well, and fluorescence signal was measured on Envision (PerkinElmer) according to operation procedures in the manual.
A dose-effect curve: log(inhibitor) vs. response-Variable slope was fitted by using GraphPad Prism 5 software to obtain an IC50 value of the compound for inhibiting cell proliferation inhibition. A formula for calculating an inhibition rate was: […]
Wherein, • Signal value of tested compound: mean fluorescence signal of cells group+medium group+compound group; • Signal value of blank group: mean fluorescence signal of medium group; • Signal value of negative control group: mean fluorescence signal of cells group+medium group.

T1 sequence (P31153 whole entry): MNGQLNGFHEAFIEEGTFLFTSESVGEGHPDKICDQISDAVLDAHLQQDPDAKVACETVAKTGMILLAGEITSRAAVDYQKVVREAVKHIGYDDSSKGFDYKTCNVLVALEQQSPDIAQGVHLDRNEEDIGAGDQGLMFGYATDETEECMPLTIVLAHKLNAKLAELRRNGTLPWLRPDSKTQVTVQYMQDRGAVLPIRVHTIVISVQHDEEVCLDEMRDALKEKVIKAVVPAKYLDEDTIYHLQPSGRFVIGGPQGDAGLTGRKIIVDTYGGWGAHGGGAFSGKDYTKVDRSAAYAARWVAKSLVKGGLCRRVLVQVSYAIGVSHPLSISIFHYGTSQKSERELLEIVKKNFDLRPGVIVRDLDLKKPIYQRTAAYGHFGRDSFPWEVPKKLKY

For `O=c1c(-c2ccc(OC(F)F)cc2)cn2ccc(C3CC3)nc2c1-c1ccc(OC(F)F)cc1` [Example 23, 2-cyclopropyl-7,9-bis[4-(difluoromethoxy)phenyl]-8H-pyrido[1,2-a]pyrimidin-8-one], the pIC50 [1] was over 7.30, the “Tumor volume, mean volume” value ([2]; 1 mg/kg daily intragastric, day 1 of administration) was 152 mm^3 and the “Tumor volume, mean volume” value ([2]; 1 mg/kg daily intragastric, day 4 of administration) was 198 mm^3. For the same compound, the “Tumor volume, mean volume” value ([2]; 1 mg/kg daily intragastric, day 6 of administration) was 205 mm^3, the “Tumor volume, mean volume” value ([2]; 1 mg/kg daily intragastric, day 8 of administration) was 238 mm^3 and the “Tumor volume, mean volume” value ([2]; 1 mg/kg daily intragastric, day 11 of administration) was 266 mm^3. The “Tumor volume, mean volume” value ([2]; 1 mg/kg daily intragastric, day 13 of administration) was 284 mm^3, the “Tumor volume, mean volume” value ([2]; 1 mg/kg daily intragastric, day 15 of administration) was 312 mm^3 and the “Tumor volume, mean volume” value ([2]; 2.5 mg/kg daily intragastric, day 1 of administration) was 153 mm^3. The “Tumor volume, mean volume” value ([2]; 2.5 mg/kg daily intragastric, day 4 of administration) was 190 mm^3, the “Tumor volume, mean volume” value ([2]; 2.5 mg/kg daily intragastric, day 6 of administration) was 196 mm^3 and the “Tumor volume, mean volume” value ([2]; 2.5 mg/kg daily intragastric, day 8 of administration) was 193 mm^3. The “Tumor volume, mean volume” value ([2]; 2.5 mg/kg daily intragastric, day 11 of administration) was 208 mm^3, the “Tumor volume, mean volume” value ([2]; 2.5 mg/kg daily intragastric, day 13 of administration) was 190 mm^3 and the “Tumor volume, mean volume” value ([2]; 2.5 mg/kg daily intragastric, day 15 of administration) was 191 mm^3. It also gave a pIC50 [3] of over 6.82.

With `Cn1cc2cc(-c3cn4ccc(C5CC5)nc4c(-c4ccc(OC(F)F)cc4)c3=O)ccc2n1` [Example 25, 2-cyclopropyl-9-[4-(difluoromethoxy)phenyl]-7-(2-methyl-2H-indazol-5-yl)-8H-pyrido[1,2-a]pyrimidin-8-one] the pIC50 [1] was over 7.30, the “Tumor volume, mean volume” value ([2]; 5 mg/kg daily intragastric, day 1 of administration) was 152 mm^3 and the “Tumor volume, mean volume” value ([2]; 5 mg/kg daily intragastric, day 4 of administration) was 174 mm^3. For the same compound, the “Tumor volume, mean volume” value ([2]; 5 mg/kg daily intragastric, day 6 of administration) was 186 mm^3, the “Tumor volume, mean volume” value ([2]; 5 mg/kg daily intragastric, day 8 of administration) was 219 mm^3 and the “Tumor volume, mean volume” value ([2]; 5 mg/kg daily intragastric, day 11 of administration) was 305 mm^3. The “Tumor volume, mean volume” value ([2]; 5 mg/kg daily intragastric, day 13 of administration) was 378 mm^3, the “Tumor volume, mean volume” value ([2]; 5 mg/kg daily intragastric, day 15 of administration) was 417 mm^3 and the pIC50 [3] was over 6.82.

`Cn1cc2cc(-c3cn4ccc(NCC(F)(F)F)nc4c(-c4ccc(OC(F)F)cc4)c3=O)ccc2n1` [Example 9, 9-[4-(difluoromethoxy)phenyl]-7-(2-methyl-2H-indazol-5-yl)-2-[(2,2,2-trifluoroethyl)amino]-8H-pyrido[1,2-a]pyrimidin-8-one] was tested, and the pIC50 [1] was over 7.30 and the pIC50 [3] was over 6.82.

For `Cn1cc2cc(-c3cn4ccc(OCC(F)(F)F)nc4c(-c4ccc(OC(F)F)cc4)c3=O)ccc2n1` [Example 22, 9-[4-(difluoromethoxy)phenyl]-7-(2-methyl-2H-indazol-5-yl)-2-(2,2,2-trifluoroethoxy)-8H-pyrido[1,2-a]pyrimidin-8-one], the pIC50 [1] was over 7.30, the “Tumor volume, mean volume” value ([2]; 7.5 mg/kg daily intragastric, day 1 of administration) was 152 mm^3 and the “Tumor volume, mean volume” value ([2]; 7.5 mg/kg daily intragastric, day 4 of administration) was 173 mm^3. For the same compound, the “Tumor volume, mean volume” value ([2]; 7.5 mg/kg daily intragastric, day 6 of administration) was 180 mm^3, the “Tumor volume, mean volume” value ([2]; 7.5 mg/kg daily intragastric, day 8 of administration) was 212 mm^3 and the “Tumor volume, mean volume” value ([2]; 7.5 mg/kg daily intragastric, day 11 of administration) was 267 mm^3. The “Tumor volume, mean volume” value ([2]; 7.5 mg/kg daily intragastric, day 13 of administration) was 324 mm^3, the “Tumor volume, mean volume” value ([2]; 7.5 mg/kg daily intragastric, day 15 of administration) was 375 mm^3 and the pIC50 [3] was over 6.82.
